Experiments:
[1] = dissolution of Sumatriptan in ethanol; assay type: physicochemical; details: 2 mg, 4 mg or 6 mg of Sumatriptan for 0.75 ml of ethanol at 35%
Excerpt: This coefficient can be modulated based on the degree of alcohol and the water/ethanol ratio that is used.

[2] = administered via the digestive tract; cited from earlier work
[3] = intra-nasal, 20 mg (nasal spray, Imigrane); cited from earlier work
[4] = tested on: acute Cluster Headache attack; details: subcutaneous injection, single dosage of 6 mg, mean delay of 15 minutes; cited from earlier work

CNS(=O)(=O)Cc1ccc2[nH]cc(CCN(C)C)c2c1 [Sumatriptan]
dissolution in ethanol [1]: complete dissolution
mean volume of theoretical distribution in the human body [2]: 200 L
residual bioavailability [2]: less than 14 % of the administered dose
mean bioavailability of the administered dose [3]: ≤ 10%
remission of the acute Cluster Headache attack [4]: 75%
